Measurements published in patent US11737955B2, “Multi-functional micro and nanoparticles for use in root canal therapies” (THE GOVERNING COUNCIL OF THE UNIVERSITY OF TORONTO, priority 2012, dated 2023).

Key:
E. faecalis biofilm [1] = test: Uptake of photosensitizers by E. faecalis biofilm; format: cell-based, E. faecalis (ATCC 29212); settings: 15 min incubation, 7 day old biofilm
Procedure: The uptake of Rose Bengal, methylene blue and chitosan polymer-Rose Bengal nanoparticles was evaluated on biofilm forms of E. faecalis. A seven day old biofilm of E. faecalis (ATCC 29212) was grown in 24 multi-well plates. 1 mL of overnight E. faecalis culture was added into each well of the multi-well plates and incubated at 37° C., 100 rpm. Fresh media was replenished every 48 hours to provide a constant supply of nutrients and to remove dead bacterial cells. On the eighth day, the media was removed from the wells, and the biofilm was carefully washed once with sterile deionized-water. Different concentrations of chitosan polymer-Rose Bengal nanoparticles (0.3, 0.5 & 1 mg/mL) and MB and Rose Bengal (10, 25, 50 & […]) were added to the biofilm and incubated at 37° C. for 15 min, protected from ambient light. Three samples were used for each concentration. Excess photosensitizer solutions were removed leaving behind the bound Rose Bengal, MB and chitosan polymer-Rose Bengal nanoparticles in biofilm and washed once. The biofilm bacteria were treated with 1 mL of 2% SDS for 20 h in order to extract the cell-bound photosensitizers. The biofilms were disrupted and collected in eppendorf tubes. The biofilm bacteria were centrifuged (3000 rpm, 10 min) and the supernatant solution was taken for photosensitizer quantification. Quantification of photosensitizer was done spectrophotometrically (Epoch, Biotek, USA) at the absorption maxima of the Rose Bengal (540 nm). Calibration curves were constructed for each Rose Bengal in 2% SDS. Uptake values were obtained as the total Rose Bengal and MB concentrations (μM) extracted from both the 1 mL of planktonic and biofilm bacteria.

[2] = test system: NIH 3T3 mouse fibroblast cells; test: Cytotoxicity, MTT assay with and without photodynamic therapy; format: cell-based
Procedure: To evaluate cytotoxicity approximately 1×10^5 NIH 3T3 mouse fibroblast cells (American Type Culture Collection CCL 1, Rockville, Md.) were seeded into 24 well plates in Dulbecco's Modified Eagle medium (DMEM) supplemented with 10% Bovine Serum and antibiotics and incubated for 48 hrs in 5% CO2 incubator (Thermo Electron Corporation, USA). After incubation, chitosan polymer-Rose Bengal nanoparticles and Rose Bengal dissolved in DMEM were added into the cells and incubated for 15 min in dark. The cells were irradiated with a white light source and a 540 nm fiber (Lumacare Inc) for a total dose of 20 J/cm^2. Rose Bengal and chitosan polymer-Rose Bengal nanoparticles were also tested without irradiation. […]
The supernatant media was removed without disturbing the cell line, and the cell layer was washed with 1 mL of phosphate-buffered saline. Cell survival was determined by the standard 3-(4, 5-dimethylthiazol-2-yl)-2, 5-diphenyltetrazolium bromide (MTT) assay (Sigma Aldrich) that determines the mitochondrial activity. […] The absorbance at 540 nm was measured photometrically by using a UV-visible spectrophotometer (Epoch, Biotek, USA). Percentage survival was calculated based on control sample without any treatment as 100%. All analyses were repeated three times in triplicate, and the statistical significance was analyzed by one-way analysis of variance.

E. faecalis biofilm [3] = test: Biofilm structure by confocal laser scanning microscopy; format: cell-based, E. faecalis (ATCC 29212)
Procedure: The structure of the 7-days old biofilm following treatment with nanoparticulates was assessed using confocal-laser-scanning-microscopy (CLSM). E. faecalis (ATCC 29212) biofilm was grown on a glass bottom culture dishes. Following treatment with Rose Bengal (10 μM) and chitosan polymer-Rose Bengal nanoparticles (0.3 mg/mL) the as mentioned above, biofilms were washed with 1 mL of sterile deionized-water. The biofilms were then stained with 200 μL, of Live/Dead® Baclight™ stain (Molecular Probes, Eugene, Oreg.) and incubated in the dark for 10 minutes. The biofilm-structures were then viewed under spinning disk confocal-laser-scanning microscopy (Olympus, Japan). Kr/Ar laser was the source of illumination with 488 nm excitation and long-pass 500-523 nm and 622-722 nm emission filter settings for green and red signals respectively. Nine different areas were imaged from each sample using a 60× oil objective. The optical sections of the biofilm-structure were first recorded then subsequently analyzed using Velocity® software. Student t-test was used to compare the thickness of the biofilm before and after nanoparticulates treatment.

planktonic E. faecalis [4] = test: Antibacterial efficacy on planktonic bacteria (CFU count); format: cell-based, E. faecalis (ATCC 29212); settings: 540 nm, 15 min sensitization
Procedure: E. faecalis (ATCC 29212) was used to test the antibacterial efficacy of Rose Bengal and chitosan polymer-Rose Bengal nanoparticles in both planktonic and biofilm forms. Planktonic cell pellets (10^9 cells/mL) were obtained and the cell pellets treated with 1 mL of Rose Bengal (10 μM) and chitosan polymer-Rose Bengal nanoparticles (0.1 & 0.3 mg/mL), at 37° C. for 15 min, in the manner previously described and protected from ambient light to allow sensitization. Dark toxicity was evaluated after 15 min of sensitization with the two treatment solutions. In the case of photodynamic therapy, the photosensitizer solutions were removed leaving a thin smear at the bottom of the eppendorf tubes. The sensitized planktonic-bacteria were irradiated using a 540 nm fiber with doses of 2 and 5 J/cm^2. After treatment, cell pellets were resuspended in sterile deionized-water (1 mL) and 100 μL of the suspension was plated in freshly poured BHI agar plates after serial dilution. Colonies were counted after 24 hours of incubation at 37° C. and expressed as log colony forming units (CFU) per mL.

planktonic E. faecalis [5] = test: Membrane integrity of planktonic bacteria (release of cell constituents, OD260); format: cell-based, E. faecalis (ATCC 29212); settings: following photodynamic therapy, 5 J/cm^2, 540 nm
Procedure: Leakage of cytoplasmic contents (DNA) is a characteristic indication of damage to the bacterial cytoplasmic membrane. Absorbance at 260 nm was used to estimate the amount of intracellular contents leaked from bacteria subjected to different photosensitizers and photodynamic therapy. E. faecalis (ATCC 29212) was incubated overnight at 37° C. under agitation in the Brain-Heart Infusion (BHI) medium (Sigma, USA). The culture was centrifuged (4000 rpm, 10 min, 4° C.), supernatants discarded and washed twice in sterile deionized water (DIW). The cells were resuspended in deionized water and adjusted to 10^7 CFU/mL (optical density 0.7) at 600 nm. The cell suspension (1 mL) was then added into eppendorf tubes and centrifuged. The supernatants were discarded and the cell pellets were treated with different photosensitizer solutions and maintained at 37° C. for 15 min, protected from ambient light. The kinetics of release of intracellular contents, treated bacterial cells were filtered (0.2 μm pore size, Pall) and absorbance of the filtrate recorded at 260 nm (OD260). For photodynamic therapy, the photosensitized cells were centrifuged and cell pellets irradiated (5 J/cm^2, 540 nm). The % change in OD260 at 15 min post sensitization and after irradiation with 5 J/cm^2 was calculated with respect to the OD260 of the sample measured at 0 min.

E. faecalis biofilm [6] = test: Antibacterial efficacy on 7-days old biofilm (CFU count); format: cell-based, E. faecalis (ATCC 29212)
Procedure: In order to test the antibacterial-efficacy of nanoparticulates on bacterial-biofilm, 7-days old biofilm of E. faecalis (ATCC 29212) was grown in well of multiwell-plates as mentioned above. On the eighth day, the media was removed from the wells, and the biofilm was carefully washed once with sterile deionized-water. The biofilm-bacteria was treated with chitosan polymer-Rose Bengal nanoparticles and Rose Bengal and exposed to photodynamic therapy with different doses. Sensitization was done using 1 mL of Rose Bengal (10 μM) and chitosan polymer-Rose Bengal nanoparticles (0.1 & 0.3 mg/mL) at 37° C. for 15 min, protected from ambient light. Subsequently, the excess photosensitizer solutions were removed leaving behind the bound chitosan polymer-Rose Bengal nanoparticles and Rose Bengal. Dark toxicity was evaluated after sensitization period with the two treatment solutions. In case of photodynamic therapy, the sensitized biofilm-bacteria were irradiated using a 540 nm fiber with dosage of 20, 40 and 60 J/cm^2; and fractionated dosage of 10 and 20 J/cm^2 twice. After treatment, the biofilms were washed gently and 1 mL of sterile deionized-water was added. […] Colonies were counted after 24 hours of incubation at 37° C. and expressed as log colony forming units (CFU) per mL. The experiments were carried out in triplicates and the mean values were calculated.

CN(C)c1ccc2nc3ccc(=[N+](C)C)cc-3sc2c1 [MB, methylene blue]
Biofilm E. faecalis photosensitizer uptake/mL of cells (E. faecalis biofilm [1]; photosensitizer 10 μM): 0.96 ± 0.07 µM
Biofilm E. faecalis photosensitizer uptake/mL of cells (E. faecalis biofilm [1]; photosensitizer 25 μM): 1.75 ± 0.21 µM
Biofilm E. faecalis photosensitizer uptake/mL of cells (E. faecalis biofilm [1]; photosensitizer 50 μM): 3.15 ± 0.16 µM
Biofilm E. faecalis photosensitizer uptake/mL of cells (E. faecalis biofilm [1]; photosensitizer 100 μM): 5.07 ± 0.19 µM

O=C1OC2(c3cc(I)c(O)c(I)c3Oc3c2cc(I)c(O)c3I)c2c(Cl)c(Cl)c(Cl)c(Cl)c21 [RB, Rose Bengal]
cell survival after photodynamic therapy ([2]; NIH 3T3, 540 nm, 20 J/cm^2): further reduction of cell survival
dark toxicity ([2]; NIH 3T3, 15 min exposure, no irradiation): higher dark toxicity
biofilm architecture (E. faecalis biofilm [3]; after PD treatment (irradiation)): not disrupted
thickness of the biofilm (E. faecalis biofilm [3]; after PD treatment, Rose Bengal 10 μM, CSRBnp 0.3 mg/mL, untreated 39.2±7.3): 21.5 ± 9.57 µm
light dose giving complete planktonic bacterial killing (planktonic E. faecalis [4]): 5 J/cm^2
Biofilm E. faecalis photosensitizer uptake/mL of cells (E. faecalis biofilm [1]; photosensitizer 10 μM): 2.72 ± 0.15 µM
Biofilm E. faecalis photosensitizer uptake/mL of cells (E. faecalis biofilm [1]; photosensitizer 25 μM): 2.80 ± 0.09 µM
Biofilm E. faecalis photosensitizer uptake/mL of cells (E. faecalis biofilm [1]; photosensitizer 50 μM): 3.01 ± 0.11 µM
Biofilm E. faecalis photosensitizer uptake/mL of cells (E. faecalis biofilm [1]; photosensitizer 100 μM): 3.68 ± 0.17 µM
release of cell constituents (absorbance at 260 nm) (planktonic E. faecalis [5]): increased absorbance at 260 nm
elimination of biofilm bacteria (E. faecalis biofilm [6]; fractionated photodynamic therapy, CSRBnp 0.3 mg/mL, Rose Bengal 10 μM): not with Rose Bengal
killing of biofilm-bacteria (E. faecalis biofilm [6]; photodynamic therapy at 60 J/cm^2): did not show complete killing
